Assay results: patent US11040987B2 (TenNor Therapeutics Limited, priority 2019, dated 2021)
In brackets after ≈: the same amount, converted by molar mass.

Key:
[1] = molecular target: AmpC_AB (Acinetobacter baumannii, UniProt Q6DRA1); experiment: β-lactamase inhibition, spectrophotometric assay of nitrocefin hydrolysis; assay type: biochemical; settings: Class C β-lactamase; 200 μM nitrocefin, 25° C., 2 hours; read-out: IC50 AmpC_AB
Description: (§1) Hydrolytic inactivation of the β-lactam antibiotics by β-lactamases is the most widespread drug resistant mechanism and the most challenge clinically among Gram-negative bacterial pathogens. Based on the amino acid sequences, the β-lactamases are grouped into four classes (Ambler classification), of which A, C and D are serine hydrolases and B encompasses metallo-β-lactamases. The IC50 of selected derivatives disclosed herein (identified with reference to example number) plus six reference β-lactam or β-lactamase inhibitors were determined against 7 representative β-lactamases of various classes in a standard spectrophotometric assay of nitrocefin hydrolysis. The assay is performed in 384-well plate. The seven recombinant β-lactamases AmpC_AB (from A. baumannii), AmpC_PA (from P. aeruginosa), KPC-2, NDM-1, IMP-1, VIM-1 and OXA 24/40) are expressed and purified. The reaction buffer for class A, C and D enzymes is 100 mM Na2HPO4—KH2PO4 (pH 7.1) plus 0.005% Tween-20, and for class B enzymes 10 μM ZnSO4 is added. […] The 50 μL of reaction solution composed of 2 pM of β-lactamase, 200 μM of nitrocefin and series of 3-fold dilutions of test or control compounds are added by Cybio SELMA system into 384-plate and incubated in dark at 25° C. for 2 hours. The OD490 is read in MC SpectraMax Plus384 plate reader.

[2] = molecular target: T1, IMP-1 (Serratia marcescens, UniProt P52699); experiment: as above; assay type: biochemical; settings: class B β-lactamase, 10 μM ZnSO4; 200 μM nitrocefin, 25° C., 2 hours; read-out: IC50 IMP-1
T1 construct: made in house
Description: as §1

[3] = molecular target: T2, NDM-1 (Klebsiella pneumoniae, UniProt C7C422); experiment: as above; assay type: biochemical; settings: class B β-lactamase, 10 μM ZnSO4; 200 μM nitrocefin, 25° C., 2 hours; read-out: IC50 NDM-1
T2 construct: made in house
Description: as §1

[4] = molecular target: T3, VIM-1 (Pseudomonas aeruginosa, UniProt A0A0F7KYQ8); experiment: as above; assay type: biochemical; settings: class B β-lactamase, 10 μM ZnSO4; 200 μM nitrocefin, 25° C., 2 hours; read-out: IC50 VIM-1
T3 construct: made in house
Description: as §1

[5] = molecular target: T4, OXA 24/40 (Acinetobacter baumannii, UniProt Q8RLA6); experiment: as above; assay type: biochemical
T4 construct: made in house
Description: as §1

[6] = system: A. baumannii ATCC 19606; experiment: MIC determination, broth microdilution, ESKAPE panel; assay type: cell-based; settings: Acinetobacter baumannii, ATCC19606; iron-depleted cation-adjusted Mueller-Hinton broth, 2,2-dipyridyl 160 μM; 37° C., 18-20 hours; read-out: MIC A. baumannii ATCC 19606
Description: (§2) Minimum inhibitory concentration (MIC) is determined by a broth microdilution method according to the recommendation of the Clinical and Laboratory Standards Institute (CLSI) with minor modification. […] Strains of an ESKAPE panel (E. faecium ATCC 700221, S. aureus ATCC 29213, K. pneumoniae ATCC 43816, A. baumannii ATCC 19606, P. aeruginosa ATCC 27853 and Escherichia coli ATCC 25922) were obtained originally from the American Type Culture Collection (ATCC) and used for MIC determinations of compounds. The bacteria inoculum in the test is […].

[7] = system: E. faecium ATCC 700221; experiment: as above; assay type: cell-based; settings: Enterococcus faecium, ATCC700221; iron-depleted cation-adjusted Mueller-Hinton broth, 2,2-dipyridyl 160 μM; 37° C., 18-20 hours; read-out: MIC E. faecium ATCC 700221
Description: as §2

[8] = system: Escherichia coli ATCC 25922; experiment: as above; assay type: cell-based; settings: ATCC25922, iron-depleted cation-adjusted Mueller-Hinton broth, 2,2-dipyridyl 160 μM, 37° C., 18-20 hours, read-out: MIC E. coli ATCC 25922
Description: as §2

[9] = system: K. pneumoniae ATCC 43816; experiment: as above; assay type: cell-based; settings: Klebsiella pneumoniae, ATCC43816; iron-depleted cation-adjusted Mueller-Hinton broth, 2,2-dipyridyl 160 μM; 37° C., 18-20 hours; read-out: MIC K. pneumoniae ATCC 43816
Description: as §2

[10] = system: P. aeruginosa ATCC 27853; experiment: as above; assay type: cell-based; settings: Pseudomonas aeruginosa, ATCC27853; iron-depleted cation-adjusted Mueller-Hinton broth, 2,2-dipyridyl 160 μM; 37° C., 18-20 hours; read-out: MIC P. aeruginosa ATCC 27853
Description: as §2

[11] = system: S. aureus ATCC 29213; experiment: as above; assay type: cell-based; settings: Staphylococcus aureus, ATCC29213; iron-depleted cation-adjusted Mueller-Hinton broth, 2,2-dipyridyl 160 μM; 37° C., 18-20 hours; read-out: MIC S. aureus ATCC 29213
Description: as §2

[12] = system: A.b TNP 41704; experiment: MIC against A. baumannii clinical isolates, alone and in combination with antibiotics; assay type: cell-based; settings: for MIC: Acinetobacter baumannii, TNP41704, Compounds alone, read-out: MIC A.b TNP 41704
[13] = system: A.b TNP 41708; experiment: as above; assay type: cell-based; settings: for MIC: Acinetobacter baumannii, TNP41708, read-out: MIC A.b TNP 41708
Description: as §2

[14] = system: A.b TNP 41709; experiment: as above; assay type: cell-based; settings: for MIC: Acinetobacter baumannii, TNP41709, Compounds alone, read-out: MIC A.b TNP 41709

T2 sequence (C7C422 29-270, looked up, species assumed): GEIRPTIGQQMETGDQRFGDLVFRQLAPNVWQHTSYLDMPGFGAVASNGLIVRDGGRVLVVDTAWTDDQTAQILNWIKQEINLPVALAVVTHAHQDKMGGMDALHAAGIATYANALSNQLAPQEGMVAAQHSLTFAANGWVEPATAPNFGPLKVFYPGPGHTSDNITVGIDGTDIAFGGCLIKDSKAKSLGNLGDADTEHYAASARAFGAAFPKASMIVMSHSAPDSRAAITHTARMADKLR
T1 sequence (P52699 19-246, looked up, species assumed): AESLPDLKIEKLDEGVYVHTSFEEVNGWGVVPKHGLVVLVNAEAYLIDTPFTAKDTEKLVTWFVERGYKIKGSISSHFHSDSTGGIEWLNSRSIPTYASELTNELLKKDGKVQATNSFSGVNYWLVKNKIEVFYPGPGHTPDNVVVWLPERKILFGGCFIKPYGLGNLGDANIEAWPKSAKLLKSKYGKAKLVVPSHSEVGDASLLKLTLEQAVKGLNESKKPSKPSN
T4 sequence (Q8RLA6 22-275): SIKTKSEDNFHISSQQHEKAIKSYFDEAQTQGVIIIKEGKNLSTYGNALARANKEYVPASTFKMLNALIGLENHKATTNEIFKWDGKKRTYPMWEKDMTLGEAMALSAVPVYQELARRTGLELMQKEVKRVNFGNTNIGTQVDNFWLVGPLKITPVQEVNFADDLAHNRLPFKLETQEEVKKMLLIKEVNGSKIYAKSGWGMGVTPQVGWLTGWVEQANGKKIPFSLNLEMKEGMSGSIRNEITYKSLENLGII

Row | SMILES | MIC [6] [mg/L] | MIC [7] [mg/L] | MIC [8] [mg/L] | MIC [9] [mg/L] | MIC [10] [mg/L] | MIC [11] [mg/L] | MIC [12] [mg/L] | MIC A.b TNP 41704 ([12]; Compounds + meropenem (1:1)) [mg/L] | MIC A.b TNP 41704 ([12]; Compounds + sulbactam (1:1)) [mg/L] | MIC [13] [mg/L] | MIC A.b TNP 41708 ([13]; Compounds + meropenem (1:1)) [mg/L] | MIC A.b TNP 41708 ([13]; Compounds + sulbactam (1:1)) [mg/L] | MIC [14] [mg/L] | MIC A.b TNP 41709 ([14]; Compounds + meropenem (1:1)) [mg/L] | MIC A.b TNP 41709 ([14]; Compounds + sulbactam (1:1)) [mg/L] | other results
1 | NC(=O)[C@@H]1CC[C@@H]2CN1C(=O)N2OS(=O)(=O)O [Avibactam, reference compound] | – | – | – | – | – | – | – | – | – | – | – | – | – | – | – | IC50 [1]: 2.61 µM; IC50 [2]: > 200 µM; IC50 [3]: > 200 µM; IC50 [4]: > 200 µM
2 | O=C(NC1CCNCC1)[C@@H]1CC[C@@H]2CN1C(=O)N2OS(=O)(=O)O [Relebactam, reference compound] | – | – | – | – | – | – | – | – | – | – | – | – | – | – | – | IC50 [1]: 0.892 µM; IC50 [2]: > 200 µM; IC50 [3]: > 200 µM; IC50 [5]: > 200 µM; IC50 [4]: > 200 µM
3 | C[C@]1(CNc2ccc(O)c(O)c2)[C@H](C(=O)O)N2C(=O)C[C@H]2S1(=O)=O [Example 117, (2S,3S,5R)-3-(((3,4-dihydroxyphenyl)amino)methyl)-3-methyl-7-oxo-4-thia-1-azabicyclo[3.2.0]heptane-2-carboxylic acid 4,4-dioxide] | 4 (≈ 11.2 µM) | > 128 | > 128 | > 128 | > 128 | > 128 | 64 | 8 | 4 | 128 | 8 | 4 | 64 | 8 | 4 | –
4 | C[C@]1(/C=N/NC(=O)c2ccc(O)cc2)[C@H](C(=O)O)N2C(=O)C[C@H]2S1(=O)=O [Example 29, (2S,3R,5R)-3-((E)-(2-(4-hydroxybenzoyl)hydrazono)methyl)-3-methyl-7-oxo-4-thia-1-azabicyclo[3.2.0]heptane-2-carboxylic acid 4,4-dioxide] | > 128 | > 128 | > 128 | > 128 | > 128 | > 128 | > 128 | 32 | 8 | > 128 | 32 | 32 | > 128 | 32 | 32 | –
5 | C[C@@H](O)[C@H]1C(=O)N2C(C(=O)O)=C(SCCN=CN)C[C@H]12 [Imipenem, reference compound] | 0.25 (≈ 0.835 µM) | > 128 | 0.25 (≈ 0.835 µM) | 0.5 (≈ 1.67 µM) | 1 (≈ 3.34 µM) | < 0.06 | 16 | – | – | 32 | – | – | 32 | – | – | –
6 | C[C@]1(/C=N/NC(=O)Cc2ccc(O)c(O)c2)[C@H](C(=O)O)N2C(=O)C[C@H]2S1(=O)=O [Example 20, (2S,3R,5R)-3-((E)-(2-(2-(3,4-dihydroxyphenyl)acetyl)hydrazono)methyl)-3-methyl-7-oxo-4-thia-1-azabicyclo[3.2.0]heptane-2-carboxylic acid 4,4-dioxide] | 64 (≈ 156 µM) | > 128 | > 128 | > 128 | > 128 | 32 (≈ 77.8 µM) | > 128 | 8 | 4 | > 128 | 8 | 8 | > 128 | 8 | 16 | –
7 | COc1ccc(C(=O)N/N=C/[C@@]2(C)[C@H](C(=O)O)N3C(=O)C[C@H]3S2(=O)=O)cc1 [Example 35, (2S,3R,5R)-3-((E)-(2-(4-methoxybenzoyl)hydrazono)methyl)-3-methyl-7-oxo-4-thia-1-azabicyclo[3.2.0]heptane-2-carboxylic acid 4,4-dioxide] | > 128 | > 128 | > 128 | > 128 | > 128 | 128 (≈ 324 µM) | > 128 | 32 | 4 | > 128 | 1 | 16 | > 128 | 32 | 4 | –
8 | C[C@]1(/C=N/NC(=O)CCNC(=O)c2ccc(O)c(O)c2Cl)[C@H](C(=O)O)N2C(=O)C[C@H]2S1(=O)=O [Example 60, (2S,3R,5R)-3-((E)-(2-(3-(2-chloro-3,4-dihydroxybenzamido)propanoyl)hydrazono)methyl)-3-methyl-7-oxo-4-thia-1-azabicyclo[3.2.0]heptane-2-carboxylic acid 4,4-dioxide] | 2 (≈ 3.98 µM) | > 128 | > 128 | 16 (≈ 31.8 µM) | > 128 | > 128 | 64 | 2 | 1 | > 128 | 2 | 8 | > 128 | 2 | 8 | MIC A.b TNP 41704 ([12]; Compounds + Imipenem (1:1)): 2 mg/L; MIC A.b TNP 41708 ([13]; Compounds + Imipenem (1:1)): 2 mg/L; MIC A.b TNP 41709 ([14]; Compounds + Imipenem (1:1)): 1 mg/L
9 | C[C@]1(/C=N/NC(=O)c2cccc(O)c2O)[C@H](C(=O)O)N2C(=O)C[C@H]2S1(=O)=O [Example 28, (2S,3R,5R)-3-((E)-(2-(2,3-dihydroxybenzoyl)hydrazono)methyl)-3-methyl-7-oxo-4-thia-1-azabicyclo[3.2.0]heptane-2-carboxylic acid 4,4-dioxide] | > 128 | > 128 | > 128 | > 128 | > 128 | > 128 | > 128 | 8 | 4 | > 128 | 8 | 8 | > 128 | 4 | 8 | –
10 | C[C@]1(/C=N/OCCNC(=O)c2ccc(O)c(O)c2Cl)[C@H](C(=O)O)N2C(=O)C[C@H]2S1(=O)=O [Example 118, (2S,3R,5R)-3-((E)-((2-(2-chloro-3,4-dihydroxybenzamido)ethoxy)imino)methyl)-3-methyl-7-oxo-4-thia-1-azabicyclo[3.2.0]heptane-2-carboxylic acid 4,4-dioxide] | > 128 | > 128 | > 128 | > 128 | > 128 | > 128 | > 128 | 128 | 16 | > 128 | >128 | >128 | > 128 | >128 | >128 | –
